From patent US20230329284A1, “BEE ANTIVIRAL COMPOSITIONS” (priority 2022, published 2023) come the findings set out here.

Experiment [1] has as its system VDV. Put plainly: Methyl jasmonate feeding of naturally VDV-infected adult honey bees, VDV load per bee by qPCR (ΔCq). The class given is in vivo. The following applies: for decrease in VDV titers compared to control bees (sugar alone) / mean change in quantification cycle value of VDV per bee (ΔCq) / decrease in VDV titers compared to control bees / mean ΔCq of VDV per bee: FIG. 1; for decrease in VDV titers compared to control bees (sugar alone) / mean change in quantification cycle value of VDV per bee (ΔCq): day 7; for mean change in quantification cycle value of VDV per bee (ΔCq): control 3.9 (+/-3.5); for decrease in VDV titers compared to control bees / mean ΔCq of VDV per bee: day 12; for mean ΔCq of VDV per bee: control 7.8 ( +/- 2.8). As to the method:
The effect on viral load of methyl jasmonate (MeJA) treatment on virally-infected bees was tested after 7 days and after 12 days of feeding sugar or sugar + MeJA.
Adult honey bees were reared in cages and fed either sucrose solution, 100 ppm MeJA dissolved in sucrose solution, or 500 ppm of MeJA dissolved in sucrose solution. Bees’ genetic material was individually examined by qPCR for normalized VDV loads at 7 days and 12 days after the start of MeJA treatment. Standard box plots include a dotted line that represents the mean, and each point represents an individual bee from one of various cages per treatment. VDV was not administered artificially and is from a natural infection. Levels of DWV-A, a recombinant variant of VDV, were too low in the specimen for quantification. A higher Δ Cq indicates […] VDV present in the specimen. For Day 7,
A second efficiency test was performed where VDV-infected adult bees were fed 100 ppm of MeJA dissolved in sucrose solution. As a control, only sucrose solution was administered.

The subject of experiment [2] is Deformed wing virus (DWV). Kind of experiment: Fluorescent determination of bee viral titers with nano-luciferase-expressing DWV construct. The settings on record: for Average Fluorescence, Average Counts: single treatment with 10^5 copies DWV, average of nine bees, DWV alone 111.366, PBS 1.687; for viral load of DWV-infected bees compared with DWV control: low, medium, or high doses. The class given is in vivo, bees. On the procedure: A fluorescent assay was performed to determine the effects of different treatments on bee viral load.
Bees were treated once with different doses of methyl jasmonate while simultaneously receiving an effective does (10^5 copies) of Deformed wing virus (DWV). The methyl jasmonte was at low dose (MJL), medium dose (MJM), or high dose (MJH). Additional bees were treated with thymol solution in low dose (TL), medium dose (TM), and high dose (TH). The infective virus dose comprised a viral construct that expressed nano-luciferase, allowing direct quantification of viral loads via spectrophotometer. As a negative control, phosphate buffered saline (PBS) solution was used alone. As a positive control, bees were infected with 10^5 DWV alone. Measurements were repeated nine times in nine different bees, and an average calculated.

The subject of experiment [3] is deformed wing virus. Kind of experiment: Screen of plant compounds for effect on bee viral loads in live bees. The format is in vivo, honey bee. The following applies: for deformed wing virus levels (viral loads), dose response: FIG. 6; for antiviral activity in live bee trials: live bees exposed to natural products derived from plants. On the procedure:
A total of 140 compounds were screened for their effect on bee viral loads.
All compounds are selected from food-safe (GRAS, generally recognized as safe by the US FDA) libraries and were tested in live bees to assess adverse impacts to bee health. Trials were carried out using live bees exposed to natural products derived from plants. […] Thymol and octanoic acid blends are being tested to assess possible synergies prior to field trials.

`CC/C=C\CC1C(=O)CCC1CC(=O)OC` (stereo not shown) [MeJA, Methyl jasmonate]: the “decrease in VDV titers compared to control bees (sugar alone)” value in experiment [1] (sugar + 100 ppm MeJA) is 11.5%; in experiment [1] (sugar + 500 ppm MeJA), 97.8%. The “mean change in quantification cycle value of VDV per bee (ΔCq)” value in experiment [1] (sugar + 100 ppm MeJA, higher ΔCq = more VDV) is 3.45 (+/- 4.8); in experiment [1] (sugar + 500 ppm MeJA), 0.085 (+/- 6.16). For the same compound, the “decrease in VDV titers compared to control bees” value in experiment [1] (sugar + 100 ppm MeJA) is listed as 33.3%; in experiment [1] (sugar + 500 ppm MeJA), 52.6%. Also, the “mean ΔCq of VDV per bee” value was 5.2 ( +/- 4.9) in experiment [1] (sugar + 100 ppm MeJA) and 3.7 ( +/- 5.3) in experiment [1] (sugar + 500 ppm MeJA). The “decrease in VDV titers compared to bees fed sugar alone (using the mean)” value in experiment [1] (FIG. 3, Day 7, sugar + 500 ppm MeJA) came out at 7.1%; in experiment [1] (second efficiency test, FIG. 2, Day 7, sugar + 100 ppm MeJA), 21.9%. For the same compound, the “median Cq” value in experiment [1] (FIG. 3, Day 7, sugar + 500 ppm MeJA, control 7.1) amounted to 6.1. Further, the “mean Cq” value in experiment [1] (FIG. 3, Day 7, sugar + 500 ppm MeJA, spread 2.1, control 7.0) is given as 6.5. The “median ΔCq” value in experiment [1] (second efficiency test, FIG. 2, Day 7, sugar + 100 ppm MeJA, control 4.17) was determined as 1.33. Further, the “mean ΔCq” value in experiment [1] (second efficiency test, FIG. 2, Day 7, sugar + 100 ppm MeJA, std dev. 3.8, control 3.2) was determined as 2.5. Moreover, the “viral levels compared with bees fed sugar alone” value in experiment [1] (treated for 12 days with sugar + MeJA) is “significantly lower viral levels”. Further, the results for the “Average Fluorescence, Average Counts” value in experiment [2] (high dose), in experiment [2] (low dose) and in experiment [2] (medium dose) were 68.246, 76.120 and 83.905, respectively. The “viral load of DWV-infected bees compared with DWV control” value in experiment [2] was “lower viral load”. In addition, the “deformed wing virus levels (viral loads), dose response” value (from here on “deformed wing virus levels”) in experiment [3] (higher levels, 1 mM or 10 mM) is recorded as “dose response in viral loads”. The “antiviral activity in live bee trials” value in experiment [3] was “antiviral activity”.

Turning to `Cc1ccc(C(C)C)c(O)c1` [thymol, 2-isopropyl-5-methylphenol], the “Average Fluorescence, Average Counts” value stood at 63.290 in experiment [2] (high dose), 67.092 in experiment [2] (low dose) and 72.992 in experiment [2] (medium dose). The “viral load of DWV-infected bees compared with DWV control” value in experiment [2] is on record as “lower viral load”. For the same compound, the “high-intensity infections (viral levels above threshold)” value in experiment [3] (FIG. 5, across 3000 honey bee trials) is listed as “quantitative reduction of high-intensity infections”. Also, the “antiviral activity in live bee trials” value in experiment [3] was “antiviral activity”.

Take `COc1cc(/C=C/C(=O)O)ccc1O` [ferulic acid, Ferulic acid]: the “deformed wing virus levels” value in experiment [3] (low levels, 0.1 mM) was “dose response in viral loads”. Moreover, the “antiviral activity in live bee trials” value in experiment [3] is on record as “antiviral activity”.

`CCCCCCCC(=O)O` [octanoic acid]: the “deformed wing virus levels” value in experiment [3] (higher levels, 10 mM and 100 mM) is “dose response in viral loads”. The “antiviral activity in live bee trials” value in experiment [3] is on record as “antiviral activity”.
